Experimental data taken from patent US20250387406A1, “THERAPY FOR REDUCED OTOTOXICITY FROM CHEMOTHERAPEUTIC AGENT WITH PENTAAZA MACROCYCLIC RING COMPLEX” (GALERA LABS, LLC, priority 2022, published 2025).

What was measured:
[1] = system: rats subjected to an experimental model of colitis; settings: rat colitis model, Cuzzocrea et al. 2001; cited from earlier work
hamster = hamster oral mucositis, Murphy et al. 2008; cited from earlier work
adult mice = settings: lethal total body irradiation, Thompson et al. 2010; cited from earlier work
rat [2] = settings: Salvemini et al. 1999; cited from earlier work
rat [3] = settings: Salvemini et al. 2001; cited from earlier work
[4] = system: H460 human non-small cell lung carcinoma (NSCLC) cells; test: Survival of H460 cells in culture with GC4419 and cisplatin; assay type: cell-based; set-up: dose or concentration left out as unconfirmed; settings: GC4419 added to indicated concentrations of cisplatin, 120 hrs, vs cisplatin alone
Procedure: After 120 hrs the surviving fraction of cells was determined.

[5] = system: H1299 human NSCLC cells, modified to inducibly overexpress catalase (H1299CAT); test: Survival of H1299CAT cells with GC4419, cisplatin and catalase overexpression; assay type: cell-based; set-up: dose or concentration left out as unconfirmed; settings: GC4419 added to cisplatin, 120 hours
Description: CAT overexpression in this line (H1299CAT) was induced by administration of doxycycline, which turned on transcription of the inserted catalase genes.

[6] = system: PARP (poly (ADP ribosyl) polymerase); test: PARP activation in H460 cells (Western blot, 89 kd active/116 kd inactive form); assay type: cell-based, human
Description: PARP is a nuclear enzyme involved in DNA repair of single strand breaks and is activated following cell stress including chemotherapy and irradiation.

[7] = system: PARP (poly (ADP ribosyl) polymerase); test: PARP activation in H1299 (wild type) cells (Western blot); assay type: cell-based, human
[8] = system: PARP (poly (ADP ribosyl) polymerase); test: PARP activation in H1299CAT cells with doxycycline induction of CAT overexpression; assay type: cell-based, human; settings: CAT induced with doxycycline
Description: When treated with doxcycline, H1299CAT cells express greater levels of human catalase (CAT) than the “parent” cells, H1299 (wild type), eliminating all or part of the H2O2 generated from superoxide by GC4419 or other Mn pentaaza macrocyclic dismutase mimetics.

H460 cells [9] = test: Total reactive oxygen species, CellROX probe, flow cytometer, H460; assay type: cell-based, human
Procedure: (§1) After the treatments and incubations CellROX fluorogenic probes for total ROS were added for 30 minutes continued incubation and the CellROX signal was measured using a flow cytometer.

H1299 (wild type) cells [10] = test: Total reactive oxygen species, CellROX probe, flow cytometer, H1299; assay type: cell-based, human
Procedure: as §1

H460 cells [11] = test: Mitochondrial superoxide, MitoSOX probe, flow cytometer, H460; assay type: cell-based, human
H1299 (wild type) cells [12] = test: Mitochondrial superoxide, MitoSOX probe, flow cytometer, H1299; assay type: cell-based, human
H460 cells [13] = test: Hydrogen peroxide, PO-1 probe, H460; assay type: cell-based, human
H1299 (wild type) cells [14] = test: Hydrogen peroxide, PO-1 probe, H1299; assay type: cell-based, human
Male C57BL/6J mice = test: Cisplatin-induced acute kidney injury (AKI) model in mice; assay type: in vivo, mouse
Description: 4 month old male C57BL/6J mice (young) were purchased from Jackson Laboratories and 18 month old mice (old) were obtained as collaboration with Dr. Amy Sindler (University of Iowa) from the National institute of Aging. All mice were maintained in accordance with ACURF approval #4121235 at the University of Iowa Animal Care facility. Mice were maintained on normal diets and water ad libitum through the course of the experiment.
Animals were weighed every other day following the start of treatment with GC4419.

[15] = system: athymic female Nu/Nu (nude) mice; test: Cisplatin-induced hematotoxicity in SQ20B tumor-bearing nude mice; assay type: in vivo, mouse
Procedure: 7 week old athymic female Nu/Nu (nude) mice were implanted in a hind leg with SQ20B human head and neck squamous cell carcinoma cells. […] Mice were assessed for blood counts by tail vein blood collection either 2 days or 2 weeks after the treatment period.

[16] = system: hair cells in mouse cochlea cultures; test: Cochlear organotypic cultures with cisplatin, hair cell number; assay type: cell-based
Procedure: Cochlear organotypic cultures. C57BL/10J mice were decapitated on postnatal day 2 or 3. The stria vascularis and spiral ligament was removed and the organ of Corti and spiral ganglion neurons from the middle turn of the cochlea dissected out. The middle turn of the cochlea was placed in a collagen matrix and 1 ml of serum-free BME plus serum free supplement, 1% bovine serum albumin, 2 mM glutamine, 5 mg/ml glucose, and 10 U/ml penicillin on a collagen pre-prepared culture dish. The cochlear explants were incubated at 4% O2, 37° C. in 5% CO2 for 2 h. […] After 24 hours the cultures were fixed for 4 h in 4% paraformaldehyde as previously described (see, e.g., McFadden et al., Toxicol Appl Pharmacol. 2003; 186(1):46-54) and immersed in rhodamine-labeled phalloidin in PBS for 30 min. […] Tissues were examined histologically for inner and outer hair cell organization and number as previously described. Dihydroethidium (DHE) was used to measure oxidative stress. […] The cochlear specimens were incubated with 1 μm DHE for 30 min at 37° C. and then fluorescent images obtained with a confocal laser microscope as previously described (see, e.g., Fetoni et al., The Journal of neuroscience: the official journal of the Society for Neuroscience. 2013; 33(9):4011-23).

CBA/CaJ mice = test: In vivo multicycle mouse model of cisplatin toxicity; settings: 10 mg/kg GC4419 1 hour prior to 3.0 mg/kg cisplatin IP
[17] = system: hair cells in mouse cochlea cultures; test: Mouse cochlea cultures with paclitaxel, hair cell number; assay type: cell-based; settings: 2 μM GC4419 for 48 or 72 hours (24 hour pre-treatment) with paclitaxel 0.1 μM and 1 μM
Procedure: Pups from C57BL/B16 pregnant female mice were decapitated on postnatal day 3. The stria vascularis and spiral ligament were removed, and the cochlea dissected out. The cochlea was placed in 400 ul of DMEM 5% FBS on a collagen pre-prepared culture dish and incubated at 4% O2, 37° C. in 5% CO2 for 24 hours. The medium was then exchanged with new medium that contained paclitaxel 0, 100 nM, and 1 μM, with and without 2 μM GC4419 for 48 hours, or pretreated for 24 hours with 2 μM GC4419 followed by paclitaxel treatment. The explants were then fixed for 1 hour in 4% paraformaldehyde. Specimens were stained with anti-myosin-VIIa antibody. Specimens were mounted and examined under a fluorescence microscope and hair cells counted using the image analysis software Imaris.

rat [18] = settings: rat model, Tuder et al. 2003; cited from earlier work
[19] = system: head-and-neck cancer patients; settings: patients undergoing chemoradiation therapy, Anderson 2015; cited from earlier work
head and neck patients = settings: concurrent chemoradiotherapy; cited from earlier work
patients = settings: human, in vivo; cited from earlier work
[20] = system: hair cells of the cochlea; settings: cited from earlier work
[21] = H460, GC4419 added to cisplatin or cisplatin plus IR
[22] = H1299, GC4419 added to cisplatin or cisplatin plus IR
[23] = 10 mg/kg GC4419 daily + cisplatin
[24] = 10 mg/kg GC4419 daily from 4 days prior to 10 mg/kg cisplatin until euthanasia
[25] = 10 mg/kg GC4419 + cisplatin + IR
[26] = 10 mg/kg GC4419 + cisplatin + IR, 2 days and 2 weeks after end of treatment
[27] = H460, cisplatin or cisplatin plus IR
[28] = H1299, cisplatin or cisplatin plus IR

[Cl-].[Cl-].[Mn+2].c1cc2nc(c1)CN[C@@H]1CCCC[C@H]1NCCN[C@@H]1CCCC[C@H]1NC2 [GC4403]
injury to the colon [1]: very significantly reduce the injury to the colon | radiation damage (hamster): attenuate the radiation damage | radiation damage (adult mice): attenuate the radiation damage | inflammation (rat [2]): inhibit inflammation | joint disease (rat [3]): prevent joint disease

[Cl][Mn][Cl].c1cc2nc(c1)CN[C@H]1CCCC[C@@H]1NCCN[C@H]1CCCC[C@@H]1NC2 [GC4419]
surviving fraction of cells [4]: decreased the surviving fraction | surviving fraction of cells ([5]; with CAT overexpression (doxycycline)): abrogated the GC4419 contribution to cisplatin response | surviving fraction of cells ([5]; without CAT overexpression (wt), vs cisplatin alone): decreased the surviving fraction | PARP activity (ratio 89 kd active to 116 kd inactive form) ([6]; 24 μM GC4419 added to 6 Gy IR + 1 μM cisplatin, 24 hr): significantly increased (p<0.01) | PARP activity (ratio 89 kd active to 116 kd inactive form) ([6]; 24 μM GC4419 added to 6 Gy IR, 24 hr, vs radiation alone): significantly increased PARP activity | PARP activity (ratio 89 kd active to 116 kd inactive form) ([6]; 24 M GC4419 added to 1 M cisplatin, 24 hours, vs cisplatin): further and significantly (p<0.01) increased PARP activity | PARP activity (ratio 89 kd active to 116 kd inactive form) ([7]; 24 μM GC4419 added to 10 μM cisplatin, 24 hr, vs cisplatin): further and significantly p<0.01) increased PARP activity | PARP activity (ratio 89 kd active to 116 kd inactive form) ([7]; 24 M GC4419 added to 6 Gy IR + 1 M cisplatin, 24 hours): significantly increased (p<0.0.05) | PARP activity (ratio 89 kd active to 116 kd inactive form) ([7]; 24 M GC4419 added to 6 Gy IR, 24 hours, vs radiation alone): significantly increased PARP activity | PARP activation response to cisplatin ([8]; 24 M GC4419 + 1 M cisplatin, 24 hours (p<0.01, FIG. 6B)): significantly (p<0.05) reduced the PARP activation response | PARP activation response to IR+cisplatin ([8]; 24 M GC4419 + 6 Gy IR + 1 M cisplatin, 24 hours (p<0.001, FIG. 6C)): significantly (p<0.05) reduced the PARP activation response | PARP activation response to IR ([8]; 24 M GC4419 + 6 Gy IR, 24 hours (p<0.05, FIG. 6C)): significantly (p<0.05) reduced the PARP activation response | total ROS (CellROX signal) (H460 cells [9]; H460, 24 M GC4419 used alone): little effect on total ROS | total ROS (CellROX signal) (H460 cells [9]; H460, GC4419 added to cisplatin therapy): synergistic effect on total ROS | total ROS (CellROX signal) (H1299 (wild type) cells [10]; H1299, 24 M GC4419 used alone): little effect on total ROS | total ROS (CellROX signal) (H1299 (wild type) cells [10]; H1299, GC4419 added to cisplatin therapy): synergistic effect on total ROS | mitochondrial superoxide (MitoSOX signal) (H460 cells [11]; [21]): significantly reduced the increase in mitochondrial superoxide | basal levels of mitochondrial superoxide (MitoSOX signal) (H460 cells [11]; H460, GC4419 alone): significantly reduced the basal levels of mitochondrial superoxide | mitochondrial superoxide (MitoSOX signal) (H1299 (wild type) cells [12]; [22]): significantly reduced the increase in mitochondrial superoxide | basal levels of mitochondrial superoxide (MitoSOX signal) (H1299 (wild type) cells [12]; H1299, GC4419 alone): significantly reduced the basal levels of mitochondrial superoxide | H2O2 (PO-1 probe) (H460 cells [13]; [21]): significantly further increases the increase in H2O2 | basal levels of H2O2 (PO-1 probe) (H460 cells [13]; H460, GC4419 alone): significantly increases both the basal levels of H2O2 | H2O2 (PO-1 probe) (H1299 (wild type) cells [14]; [22]): significantly further increases the increase in H2O2 | basal levels of H2O2 (PO-1 probe) (H1299 (wild type) cells [14]; H1299, GC4419 alone): significantly increases both the basal levels of H2O2 | kidney injury molecule 1 (KIM1) biomarker (Male C57BL/6J mice; [23]): prevented that injury | neutrophil gelatinase-associated lipocalin (NGAL) biomarker (Male C57BL/6J mice; [23]): prevented that injury | survival (Male C57BL/6J mice; 10 mg/kg GC4419 daily + cisplatin, old mice): prevented cisplatin mortality | weight loss (Male C57BL/6J mice; 10 mg/kg GC4419 daily + cisplatin, young and old mice): reduced the amount of weight loss | creatinine level (Male C57BL/6J mice; [24]): completely prevented these increases in BUN and creatinine | whole blood urea nitrogen (BUN) level (Male C57BL/6J mice; [24]): completely prevented these increases in BUN and creatinine | eosinophil percentage [15, 25]: maintained eosinophil percentage at apparently normal levels | neutrophil percentage [15, 25]: maintained neutrophil percentage at apparently normal levels | leukocyte (WBC) count [15, 26]: stimulated leukocyte (WBC) | lymphocyte subset [15, 26]: proportionally lymphocyte subset production | platelets ([15]; 10 mg/kg GC4419 every day + cisplatin + IR, two days after end of treatments): significantly restored platelet levels | number of hair cells (FIG. 12A) ([16]; GC4419 0.5, 2 or 4 μM with cisplatin, 24 h): dose-dependent protection against hair cell damage | hair cell damage, microscopy images (FIG. 12B) ([16]; GC4419 with cisplatin): reduced damage to the hair cells caused by cisplatin and preserved the number of hair cells | weight loss (FIG. 14) (CBA/CaJ mice): reduced the amount of weight loss caused by cisplatin | number of hair cells (FIG. 15) [17]: protective effect of GC4419 on the hair cells | VEGFr inhibitor-induced pulmonary disease (rat [18]): attenuate VEGFr inhibitor-induced pulmonary disease | oral mucositis [19]: reduce oral mucositis | incidence of chronic kidney disease (head and neck patients): significantly decrease the incidence of chronic kidney disease

N.N.[Cl][Pt][Cl] [cisplatin, reference compound]
total ROS (CellROX signal) (H460 cells [9]; H460, 1 M cisplatin or cisplatin plus 6 Gy IR): increased total ROS | total ROS (CellROX signal) (H1299 (wild type) cells [10]; H1299, 1 M cisplatin or cisplatin plus 6 Gy IR): increased total ROS | mitochondrial superoxide (MitoSOX signal) (H460 cells [11]; [27]): increase in mitochondrial superoxide | mitochondrial superoxide (MitoSOX signal) (H1299 (wild type) cells [12]; [28]): increase in mitochondrial superoxide | H2O2 (PO-1 probe) (H460 cells [13]; [27]): increase in H2O2 | H2O2 (PO-1 probe) (H1299 (wild type) cells [14]; [28]): increase in H2O2 | mean cHL (patients): 36 dB | damage to inner hair cells (IHCs) [20]: sparing of inner hair cells (IHCs) | damage to outer hair cells (OHCs) [20]: profoundly damages outer hair cells (OHCs)
